{
  "source": "patent US20070270348A1",
  "about": "“Compositions and Methods for Modulating Insulin-Activated Nitric Oxide Synthase” (priority 2004, published 2007)",
  "key": {"human erythrocytes": {"test_system": "human erythrocytes", "test": "Stimulation of nitric oxide synthesis from l-arginine in human erythrocyte suspension", "format": "cell-based", "experimental": "Stimulation of nitric oxide synthesis from l-arginine by allimin in human erythrocytes was shown by incubation of a human erythrocyte suspension with different concentrations of purified allimin.\nFractions (1.5 ml each) were collected and the ability of each fraction to stimulate nitric oxide synthesis from l-arginine in human erythrocytes was determined.\nThe stimulation of nitric oxide synthesis was determined by assaying 0.1 ml of aqueous extracts of garlic or benzene purified allimin or different fractions from the SEPHADEX® column to erythrocyte suspensions in Kreb's buffer, pH 7.4. The formation of nitric oxide in the reaction mixture was quantitated by the conversion of oxyhemoglobin to methemoglobin. Quantitative amounts of nitric oxide in the reaction mixture were confirmed independently by chemiluminescence technique. Briefly 1.0 ml of the reaction supernatant was treated with 15 mM (final concentration) of oxyhemoglobin under N2. The spectral changes at 650, 630 and 575 nm due to the conversion of oxyhemoglobin to methemoglobin was continuously monitored by using a scanning BECKMAN spectrophotometer to quantitate nitric oxide formation using greater than 99% percent pure preparation of nitric oxide.\nBlood was collected from healthy male and female volunteers, between the ages of 25-50 years, who had not taken any medication for at least for 14 days prior to the donation of blood. The blood was anti-coagulated by adding 1 volume 130 mM sodium citrate to 9 volumes of blood, mixed by gentle inversion, and the erythrocyte suspension was prepared."}, "mouse erythrocytes": {"test_system": "mouse erythrocytes", "test": "Nitric oxide production in erythrocytes of mice injected with EAC cells", "conditions": "for NO produced by erythrocytes: EAC mice, allimin 75 micrograms/kg/day oral", "experimental": "Using a well-established mouse model for anti-neoplastic drug testing (Hartveit et al. (1970) Acta. Pathol. Microbiol. Scand. 78:516-524), the effects of oral administration of allimin on the production of nitric oxide in mouse erythrocytes was examined. Blood was drawn from the tail vein of Swiss albino mice (2 months of age) and was anti-coagulated by adding sodium citrate to the blood sample. The erythrocyte suspension was prepared according to standard methods (Ray et al. (1986) Biochim. Biophys. Acta. 856:421-427). […] The formation of nitric oxide in the reaction mixture was quantitated by the conversion of oxyhemoglobin to methemaglobin (Jia et al. (1996) Nature 380:221-226) and verified by chemiluminescence techniques (Sinha et al. (1999) Life Sci. 265:2687-2696). In addition to normal or control mice, ascitic carcinoma was induced in Swiss albino mice by injecting approximately 10^6 Ehrlich's ascitic carcinoma cells (EAC cells) into the peritoneal cavity of mice (Hartveit et al. (1970) Acta. Pathol. Microbiol. Scand. 78:516-524). Animals were divided into two groups, one group receiving laboratory chow alone and the other receiving allimin (75 micrograms/kg body weight/day) along with laboratory chow. Animals in each group were given the respective diets for 10 days before both groups were injected with EAC cells. Dietary treatment then continued during ascites development such that an increase of an EAC cell count to 5×10^6 cells/ml was achieved.\nFor the preparation of erythrocyte suspensions from mice, blood was drawn from the tail vein and anti-coagulated by adding sodium citrate to the blood sample and a suspension was made as described by Ray et al. ((1986) Biochim. Biophys. Acta 856:421-427)."}, "membrane tyrosine kinase": {"test_system": "membrane tyrosine kinase", "test": "Membrane tyrosine kinase activation", "format": "biochemical, mice", "conditions": "insulin 200 μU/ml, allimin 50 μg/ml, none = 100, mean ± SD", "procedure": "(§1) The in vitro effect of allimin on glucose transport and glucose oxidation was compared with that of insulin in mice epitrochlearis muscle which is reported to be a model target tissue for insulin action. […] Addition of NAME to the incubation mixture inhibited the insulin-mimicking effect of allimin on both glucose transport and glucose oxidation. In another study, membranes from epitrochlearis muscle were prepared and the effect of allimin on the activation of the membrane tyrosine kinase and PI3 kinase were determined by incubating the membrane preparation with either insulin or allimin.\nThe effect of allimin on the activation of epitrochlearis muscle membrane was determined using monoclonal anti-phosphotyrosine kinase antibody, Glu^80 Tyr^80 copolymer, and [^32P]-ATP and compared with that of insulin.\n(§2) Mice epitochlearis muscle and the membrane of the muscle were prepared. Glucose transport activity was determined by incubating […] of epitochlearis muscle in Krebs-Ringer buffer, pH 7.4, in the presence of either insulin ([…]) or allimin ([…]) using a 2-deoxy D-^14C glucose. Glucose oxidation was determined by incubating […] of epitrochlearis muscle in Krebs-Ringer buffer, pH 7.4, in the presence of either insulin or allimin as indicated using U-14C glucose. […]"}, "[1]": {"test_system": "ADP-induced platelet aggregation", "test": "ADP-induced platelet aggregation in platelet rich plasma", "format": "cell-based", "conditions": "40 nM, 30 minutes at 23° C., 6 μM ADP", "procedure": "Given the role of nitric oxide in the function of platelets it is was determined whether allimin could modulate platelet aggregation. Platelet Rich Plasma (PRP) was isolated from citrated blood and incubated with […] Allimin for 30 minutes at 23° C. Subsequently, 6 μM adenosine 5′-diphosphate (ADP) was added and inhibition of ADP-induced platelet aggregation was recorded and compared with a control."}, "[2]": {"test_system": "alloxan-induced diabetic mice", "conditions": "for duration of euglycemia / normal glucose levels after one dose: single oral bolus; for plasma glucose level: oral allimin", "experimental": "To determine whether the increased plasma nitric oxide level achieved through the oral administration of allimin would result in the decrease of elevated plasma glucose levels in diabetic mice, the plasma glucose level was continuously monitored. […] In a further study, diabetic mice were injected with insulin (200 μunits/25 g) in their hind leg muscle instead of oral administration of allimin.\nInbred albino mice of both sexes were raised in an institutional facility from birth to age 2 months and weighed between 20-25 grams. These mice were allowed free access to feed and sterile water under 12 hour cycles of alternating light and dark. A total of 60 mice were studied. Group I consisted of 20 mice that were divided into 4 subgroups of 5 mice per subgroup. […] Group II consisted of 20 mice that were divided in 4 groups, 5 mice in each subgroup. All of the mice were made diabetic, one of the diabetic subgroup of mice received insulin and the second diabetic subgroup received oral administration of allimin.\nAlloxan was used to induce diabetes in mice in accordance with standard methods. Blood glucose levels were determined by using glucose oxidase strips in a glucometer. The mice were considered to be diabetic when the blood glucose level after overnight fasting were 250-300 mg/dl as compared to 70-80 mg/dl in non-diabetic mice. […] When these diabetic mice were fed ad libitum, the blood glucose level increased to 400-450 mg/dl after 2 hours of feeding."}, "PI3 kinase": {"test_system": "PI3 kinase", "test": "PI3 kinase activation of muscle membrane", "format": "biochemical, mice", "conditions": "insulin 200 μU/ml, allimin 50 μg/ml, none = 100, mean ± SD", "procedure": "as §1\nThe activation of PI3 kinase of mice epitrochlearis muscle membrane either by allimin or insulin was determined using PI3 kinase antibody. […] The PI3 kinase activity was determined by CHCl3—CH3OH extraction and HPLC.\nas §2"}, "[3]": {"test_system": "Ehrlich's ascitic carcinoma cells (EAC cells)", "test": "Survival and body weight of mice with Ehrlich's carcinoma ascites", "conditions": "daily allimin", "text": "In addition to normal or control mice, ascitic carcinoma was induced in Swiss albino mice by injecting approximately 10^6 Ehrlich's ascitic carcinoma cells (EAC cells) into the peritoneal cavity of mice (Hartveit et al. (1970) Acta. Pathol. Microbiol. Scand. 78:516-524). Animals were divided into two groups, one group receiving laboratory chow alone and the other receiving allimin (75 micrograms/kg body weight/day) along with laboratory chow. Animals in each group were given the respective diets for 10 days before both groups were injected with EAC cells. Dietary treatment then continued during ascites development such that an increase of an EAC cell count to 5×10^6 cells/ml was achieved."}, "EAC cells": {"test_system": "EAC cells", "test": "Viability of EAC cells in peritoneal fluid", "format": "in vivo, Swiss albino mice", "procedure": "Experiments were performed to determine the effects of allimin on the viability of EAC cells, a measure of the anti-neoplastic activity of allimin. Total EAC count (dead+viable cells) in peritoneal fluid was determined after 14 days of injection of EAC in the allimin treated and the untreated mice. […] It was noted that 25% of the viable EAC in the fluid of allimin-treated mice were twice as large (size) as compared to those in the untreated mice. This increase in cell size is indicative of the onset of death and the loss of the ability to regulate osmotic pressure (Ballas (1999) Merck Manual, Merck Research Laboratories, Whitehouse Station, N.J., pp. 1002-1023). The cellular basis for the decreased viability of the carcinoma cells in the allimin-treated mice was tested using a DNA fragmentation assay (Liu et al. (2000) Nucleic Acids Res. 28:4180-4188)."}, "[4]": {"test_system": "mice epitrochlearis muscle", "test": "Glucose transport activity in epitrochlearis muscle", "format": "cell-based", "conditions": "insulin 200 μU/ml, allimin 50 μg/ml, NAME 10 μg/ml, mean ± SD", "procedure": "as §1\nMice epitochlearis muscle and the membrane of the muscle were prepared. Glucose transport activity was determined by incubating […] of epitochlearis muscle in Krebs-Ringer buffer, pH 7.4, in the presence of either insulin ([…]) or allimin ([…]) using a 2-deoxy D-^14C glucose. Glucose oxidation was determined by incubating […] of epitrochlearis muscle in Krebs-Ringer buffer, pH 7.4, in the presence of either insulin or allimin as indicated using U-14C glucose. Insulin- or allimin-induced activation of tyrosine kinase and PI3 kinase activities of the membrane preparation were determined using anti-phosphotyrosine antibody and PI3 kinase antibody, respectively, as described. Results shown in Table 4 are mean ±SD of 5 to 6 experiments using different animals."}, "[5]": {"test_system": "non-diabetic and alloxan-induced diabetic mice", "test": "Plasma nitric oxide level after oral administration in mice", "format": "in vivo", "procedure": "The effect of oral administration of allimin on the plasma nitric oxide level in diabetic and non-diabetic mice was determined using alloxan-induced diabetic mice as compared to normal non-diabetic mice. […] Allimin was orally administered (75 μg/kg body weight) to non-diabetic and alloxan-induced diabetic mice. The plasma nitric oxide level was measured on different days. Results were obtained from 10 mice in each group in triplicate. While the plasma nitric oxide level in the diabetic mice was 0.1±0.02 nmol/ml, the nitric oxide level in the non-diabetic mice was 0.75±0.05 nmol/ml (p<0.05). Upon oral administration of allimin (75 micrograms/kg body weight), the plasma nitric oxide level was increased to 0.45±0.05 nmol/ml within 24 hours and continued to increase thereafter, to a maximum of 0.8±0.1 nmol/ml on the third day. On the fourth day, the plasma nitric oxide level began to gradually decrease. On the sixth day, the plasma nitric oxide level returned to the pretreatment level in the diabetic mice.\nA total of 60 mice were studied."}, "[6]": {"test_system": "mice epitrochlearis muscle", "test": "Glucose oxidation in epitrochlearis muscle", "format": "cell-based", "conditions": "insulin 200 μU/ml, allimin 50 μg/ml, NAME 10 μg/ml, mean ± SD", "procedure": "as §1\nThe effect of allimin on the oxidation of glucose was compared with that of insulin. […] Glucose oxidation was determined.\nas §2"}},
  "note": "Entries after “also recorded” stand apart in the source; their conditions may differ. Where two headings read alike, the source gives them in different places. Ends that are not written are not given here.",
  "data": [
    {"compound": "COC(=O)[C@@H](N)CCCNC(=N)N[N+](=O)[O-]", "note": "[NAME, NG-nitro L-arginine methyl ester, reference compound]", "values": [
      {"measurement": "inhibition of allimin-stimulated nitric oxide synthesis", "setting": "human erythrocytes; 10 μM NAME added to reaction mixture with allimin", "result": "completely inhibited; also recorded: complete inhibition"}
    ]},
    {"compound": "Allimin (XMIPTNGEGLYAGQSLDVEQYKFIMRPDDNLVXYX; X: residue not identified in the source; listed as Allium sp.)", "values": [
      {"measurement": "nitric oxide production from erythrocytes restored to", "setting": "mouse erythrocytes; allimin fed 10 days after the carcinogenic insult, 4.02% without", "result": 92.78, "unit": "%"},
      {"measurement": "NO produced by erythrocytes", "setting": "mouse erythrocytes; day 1", "result": "0.569 ± 0.02 nmol NO produced/10^8 cells/hour"},
      {"measurement": "NO produced by erythrocytes", "setting": "mouse erythrocytes; day 5", "result": "0.392 ± 0.01 nmol NO produced/10^8 cells/hour"},
      {"measurement": "NO produced by erythrocytes", "setting": "mouse erythrocytes; day 10", "result": "0.408 ± 0.02 nmol NO produced/10^8 cells/hour"},
      {"measurement": "NO produced by erythrocytes", "setting": "mouse erythrocytes; day 15", "result": "0.440 ± 0.01 nmol NO produced/10^8 cells/hour"},
      {"measurement": "NO produced by erythrocytes", "setting": "mouse erythrocytes; day 20", "result": "0.498 ± 0.02 nmol NO produced/10^8 cells/hour"},
      {"measurement": "NO produced by erythrocytes", "setting": "mouse erythrocytes; day 25", "result": "0.532 ± 0.02 nmol NO produced/10^8 cells/hour"},
      {"measurement": "NO produced by erythrocytes", "setting": "mouse erythrocytes; day 30", "result": "0.528 ± 0.03 nmol NO produced/10^8 cells/hour"},
      {"measurement": "reduction of nitric oxide production in erythrocytes", "setting": "mouse erythrocytes; twenty days after EAC injection, dietary allimin, 86.72% without", "result": 12.48, "unit": "%"},
      {"measurement": "Tyrosine kinase activation", "setting": "membrane tyrosine kinase", "result": "215 ± 10", "unit": "% activation"},
      {"measurement": "inhibition of ADP-induced platelet aggregation", "setting": "[1]", "result": "potent inhibitor of platelet aggregation"},
      {"measurement": "duration of euglycemia / normal glucose levels after one dose", "setting": "[2]; diabetic animals", "result": "up to four or five days"},
      {"measurement": "duration of euglycemia / normal glucose levels after one dose", "setting": "[2]; diabetic animals, listed as allimin", "result": "four to five consecutive days"},
      {"measurement": "plasma glucose level", "setting": "[2]; diabetic mice, next four days", "result": "120 to 130", "unit": "mg/dL"},
      {"measurement": "plasma glucose level", "setting": "[2]; diabetic mice, sixth day", "result": "above 350 mg/dl"},
      {"measurement": "plasma glucose level", "setting": "[2]; diabetic mice, within next 12 hours, initial 470±20", "result": "120 ± 10", "unit": "mg/dL"},
      {"measurement": "concentration at which synthesis of nitric oxide was maximally stimulated", "setting": "human erythrocytes; human erythrocyte suspension", "result": 8, "unit": "nM"},
      {"measurement": "Specific Activity (nmol NO/mg/h)", "setting": "human erythrocytes; purification step of garlic extract, stimulation of NO synthesis", "result": 563.75, "unit": "nmol NO/mg/h"},
      {"measurement": "PI3 kinase activation", "setting": "PI3 kinase", "result": "187 ± 12", "unit": "% activation"},
      {"measurement": "survival at 20 days", "setting": "[3]; controls succumbed by day 20", "result": "survived the EAC carcinogenic insult at 20 days"},
      {"measurement": "mice surviving at least 40 days", "setting": "[3]; p<0.01", "result": "Ten percent"},
      {"measurement": "total EAC count (dead+viable cells) in peritoneal fluid", "setting": "EAC cells; 14 days after injection of EAC", "result": "7×10^6 cells/ml"},
      {"measurement": "dead EAC count in peritoneal fluid", "setting": "EAC cells; 14 days after injection of EAC, untreated 3×10^4", "result": "2×10^5 cells/ml"},
      {"measurement": "pathway of EAC cell death (DNA fragmentation assay)", "setting": "EAC cells; oral allimin", "result": "induced the necrotic pathway"},
      {"measurement": "viable EAC twice as large as in untreated mice", "setting": "EAC cells; peritoneal fluid of treated mice", "result": 25, "unit": "%"},
      {"measurement": "Glucose transport", "setting": "[4]", "result": "82 ± 6", "unit": "nmol/g protein/minute"},
      {"measurement": "duration of elevation of plasma nitric oxide", "setting": "[5]; diabetic mice, one time oral bolus dose", "result": "about five days; also recorded: four to five days"},
      {"measurement": "day plasma nitric oxide level returned to pretreatment level", "setting": "[5]; diabetic mice, single oral 75 micrograms/kg", "result": "sixth day"},
      {"measurement": "plasma nitric oxide level, maximum", "setting": "[5]; diabetic mice, single oral 75 micrograms/kg, third day", "result": "0.8 ± 0.1", "unit": "nmol/mL"},
      {"measurement": "plasma nitric oxide level", "setting": "[5]; diabetic mice, single oral 75 micrograms/kg, within 24 hours, pretreatment 0.1±0.02", "result": "0.45 ± 0.05", "unit": "nmol/mL"},
      {"measurement": "day plasma nitric oxide level decreased to pretreatment level", "setting": "[5]; non-diabetic mice, oral feeding", "result": "fourth day"},
      {"measurement": "Glucose Oxidation", "setting": "[6]", "result": "306 ± 82", "unit": "nmol/g protein/minute"}
    ]},
    {"compound": "Insulin: Insulin (trade name HUMULIN, obtained from Eli Lilly) [reference compound]", "values": [
      {"measurement": "Tyrosine kinase activation", "setting": "membrane tyrosine kinase", "result": "210 ± 18", "unit": "% activation"},
      {"measurement": "duration of control of hyperglycemia", "setting": "[2]; diabetic animals, single intramuscular injection", "result": "less than 24 hours"},
      {"measurement": "blood glucose level after injection", "setting": "[2]; diabetic mice, 200 μunits/25 g in hind leg muscle, within next 24 hours", "result": "350 ± 20", "unit": "mg/dL"},
      {"measurement": "effect of oral administration on elevated blood glucose level", "setting": "[2]; diabetic mice, oral", "result": "no effect"},
      {"measurement": "PI3 kinase activation", "setting": "PI3 kinase", "result": "155 ± 10", "unit": "% activation"},
      {"measurement": "Glucose transport", "setting": "[4]", "result": "75 ± 4", "unit": "nmol/g protein/minute"},
      {"measurement": "Glucose Oxidation", "setting": "[6]", "result": "278 ± 80", "unit": "nmol/g protein/minute"}
    ]}
  ]
}
